The values that follow come from a melting point compilation (Tetko et al.; mined from patent text by program, amines drawn as free bases though some values may be those of a salt).

A value given as a limit tells only on which side of the number the result lay.

For orientation: melting point means the temperature of the solid-liquid transition.

In turn, `CC(C)Cc1ccc2nc(Cl)c(S(N)(=O)=O)n2n1` came in with a melting point of 168 to 170 °C.

With `Cc1ccc(-c2cc3cc(C=O)ccc3o2)cc1`, the melting point lay in the range of 162 to 164 °C.

Turning to `Clc1cccc(Nc2ncnc3[nH]nc(NCc4ccc(-c5nccs5)cc4)c23)c1`, the melting point lay within 241 to 243 °C.

As for `CC1(C)CCSc2cccc(O)c21`, the melting point was 48 °C.

`C=C1CC2C3CCC4=CC(=O)C=CC4(C)C3=CCC2(C)C1(O)C(C)=O` (configuration not stated) registered a melting point of 185 to 190 °C.

`O[C@@]1(c2ccc(Cl)c(Cl)c2)CCC[C@H]2NCC[C@H]21` (racemic): the melting point fell in the range of 190 to 191 °C.

Molecule `COC(=O)[C@]1(OS(C)(=O)=O)C[C@H](CC(C)C)[C@@H](O)[C@H](O)C1` came in with a melting point of 122 to 123 °C.

Molecule `N#Cc1cc(C(=O)O)c2c(c1)C(C(=O)O)CCN2` (configuration not stated) displayed a melting point of 235 to 236 °C.

`CCN(CC)C(=O)c1ccc2ccccc2c1-c1cccc(COC(C)(C)C)c1` returned a melting point of 117 to 119 °C.

`O=C(c1ccc(F)cc1)C1CCN(C(=O)CCc2ccc(OCc3ccccc3)cc2OCc2ccccc2)CC1` yielded a melting point of 140 to 141 °C.

Molecule `C=CC(=O)NCc1ccc(CC(=O)OCC)cc1` yielded a melting point of 93 to 95 °C.

`CC1(C)Oc2ccc(C#N)cc2[C@@H](NNC(=O)c2ccccc2)[C@@H]1O` (relative stereo) came in with a melting point of 197 to 199 °C.

`O=C/C=C/c1ccc(Cl)c(Cl)c1`: the melting point lay within 92 to 94 °C.

`CN(O)C(=O)Nc1ccc(S(C)(=O)=O)cc1` showed a melting point of 198 °C.

With `CC(C)Oc1ccc(-c2nn(C(C)c3oc4ccccc4c(=O)c3-c3cccc(F)c3)c3ncnc(N)c23)cc1F` (configuration not stated), the melting point lay in the range of 204 to 206 °C.

With `CC(C)c1nc2[nH]c(=O)ccc2c(-c2ccc(F)cc2)c1/C=C/C=O`, the melting point is 261 °C.

`CC(=O)Oc1c(Cc2ccccc2)ccc2c1ccn2C` came in with a melting point of 56 to 58 °C.

As for `NC(=O)N1C(=O)C(=C(OC(=O)C=CC(=O)O)c2cccs2)c2cc(Cl)ccc21`, the melting point was in the range of 198 to 200 °C.

The molecule `Cc1c([N+](=O)[O-])cc(S(F)(F)(F)(F)F)cc1[N+](=O)[O-]` displayed a melting point of 108 to 109 °C.

Molecule `CCC(C)(C)c1nc(C(C)C)[nH]c1C(C)(C)CC` gave a melting point of 28 °C.

With `COc1cc2c(cc1O)OCC(c1ccc(O)cc1)C2` (configuration not stated), the melting point came to 159 °C.

`CC(C)(C)c1cc(CCc2ccccc2NC(=O)NC2CCN(Cc3ccc(Cl)cc3)CC2)cc(C(C)(C)C)c1O` came in with a melting point of 184 to 185 °C.

With `COC(=O)c1cc(Cl)sc1N`, the melting point is 99 to 101 °C.

For `Cc1nc(O)cc(C(F)(F)F)n1`, the melting point fell in the range of 141 to 143 °C.

The molecule `O=S(=O)(CC1CCCCC1)c1nc[nH]n1` returned a melting point of 172 to 175 °C.

For the molecule `CC(=O)C(O)C1OC(O)(N=C=O)C(O)(C(C)=O)C(O)(C(C)=O)C1(O)C(C)=O` (configuration not stated), the melting point fell in the range of 113 to 115 °C.

`O=C(O)c1ccc(-c2ccc(C(=O)O)c(C(=O)O)c2)cc1C(=O)O` returned a melting point of 295 to 302 °C.

In the case of `CC1(C)CCC(C)(C)c2cc(C(O)COc3ccc(C(=O)NN4CCCCC4)c(O)c3)ccc21` (configuration not stated), the melting point stood at 124 °C.

`CCCNC(=O)Nc1c(C(=O)c2ccccc2)[nH]c2cc(Cl)ccc12` came in with a melting point of 234 to 236 °C.

Regarding `CCc1nc2c(C)cc(C)nc2n1Cc1ccc(C(Cc2nnn[nH]2)c2ccc(OC)cc2)cc1` (configuration not stated), the melting point was 96 to 99 °C.

`O=C(NC(Cc1ccc(OCc2ccc(F)cc2)cc1)C(=O)O)c1cc2ccc(-c3ccc(Cl)cc3)cc2o1` (configuration not stated) displayed a melting point of 166 to 168 °C.

`CN(CCc1ccccc1)C(=O)Cn1cc(C=CC(=O)N2CCCC2)c2cc(OCc3ccccc3)ccc21` showed a melting point of 185 to 187 °C.

In turn, `CCOC(=O)CSc1nc(Cl)cc(Nc2ccc(Cl)cc2)n1` gave a melting point of 109 to 112 °C.

For the molecule `Fc1ccc(-c2cc(C(C(F)(F)F)C(F)(F)F)[nH]c2-c2ccc(F)cc2)cc1`, the melting point fell in the range of 123 to 124 °C.

In turn, `O=C1NC(N2CCCCC2)=N/C1=C\c1c[nH]c2ncc(Cl)cc12` showed a melting point of 315 to 320 °C.

On to `COC(=O)CCCCC(NC(=O)c1ccccc1)C(C)=O` (configuration not stated), for which the melting point was 59 to 60 °C.

Molecule `COC(=O)c1ncc(C)cc1C(=O)O` returned a melting point of 200 °C.

In turn, `O=C(O)C(CCc1ccccc1)Oc1ccc(-c2ccc(-c3c(Cc4ccccc4)oc4ccccc34)cc2)cc1` (configuration not stated) showed a melting point of 152 to 154 °C.

The molecule `O=C(CCCc1cnoc1-c1ccccc1)Nc1ccc(-n2ccnc2)cc1` gave a melting point of 132 to 133 °C.

`COC(=O)C(=Cc1cc(OC)cc(OC)c1)c1ccc(O)cc1` had a melting point of 106 to 108 °C.

The molecule `COC(=O)[C@@]12CN(Cc3ccccc3)C[C@@H]1[C@@](O)(c1cccc(OC)c1)CC[C@H]2c1ccccc1` (racemic) registered a melting point of 118 °C.

For `O=Cc1c2ccccc2c(Br)c2ccccc12`, the melting point lay in the range of 215 to 216 °C.

Molecule `O=C(NCc1ccccc1)Nc1ccc(Cl)cc1` yielded a melting point of 206 to 208 °C.

As to `COc1ccc2c(C(=O)c3cc(OC)c(OC)c(OC)c3)c(-c3ccc(OC)c(O)c3)[nH]c2c1`, the melting point lay in the range of 189 to 190 °C.

In the case of `NS(=O)(=O)c1cc2[nH]c(-c3nc4cc(Cl)c(S(N)(=O)=O)cc4[nH]3)nc2cc1Cl`, the melting point was 360 °C.

`COc1ccc(CCNC(=O)c2ccc(S(=O)(=O)NC(=O)c3ccc(C(=O)NCCO)nc3)cc2)cc1OC`: the melting point fell in the range of 201 to 203 °C.

For `CN(C)CCNC(=O)Nc1ccccc1`, the melting point was in the range of 141 to 142 °C.

As for `Cc1ccc(C=CC2CCC(c3ccccc3)(N(C)C)CC2)cc1` (configuration not stated), the melting point was in the range of 130 to 145 °C.

Molecule `CSc1nc(-c2ccc(F)cc2)c(-c2ccnc(Nc3ccccc3)c2)[nH]1` came in with a melting point of 228 °C.

Regarding `CCCn1nc(-c2cc(C(C)(C)C)c(O)c(C(C)(C)C)c2)c2cccnc21`, the melting point was 97 to 98 °C.

The molecule `CN1C(=O)c2cccnc2Nc2cc([N+](=O)[O-])ccc21` displayed a melting point of 275 to 278 °C.

`CSc1ncc(C(=O)O)c(Nc2ccc3[nH]ncc3c2)n1` came in with a melting point of over 270 °C.

In the case of `C=CCOc1ccccc1OCC(O)CNC1CCC(NC(=O)NCC)CC1` (configuration not stated), the melting point was in the range of 159 to 160 °C.

For `CC(=NOC(C)(C)C)c1cnc(NC(=O)[C@H](CC2CCCC2)c2ccc(S(C)(=O)=O)cc2)cn1`, the melting point lay in the range of 81 to 83 °C.

In turn, `Cc1cc(SC2=C(O)CC(CCC3CCCO3)(C(C)C)OC2=O)c(C(C)(C)C)cc1CO` (configuration not stated) had a melting point of 57 to 59 °C.

In turn, `CCN(CC)CC1CCCCN1CC(=O)N1c2ccccc2C(=O)Nc2ccc(Cl)nc21` (configuration not stated) gave a melting point of 191 to 192 °C.

Regarding `O=C1NCN2c3ccccc3Oc3cccc1c32`, the melting point was over 300 °C.

Molecule `C#Cc1cc(C(C)(C)C)cc(C(C)(C)C)c1OCC` had a melting point of 46 to 47 °C.

`COC(=O)[C@@H](NC(=O)Nc1n[nH]c(=S)s1)[C@@H](C)OCc1ccccc1` came in with a melting point of 88 to 90 °C.

Molecule `COc1nc(C)c(C(C)OC(=O)CCC(=O)O)cc1NC(=O)N1CCN(c2cc(C)cc(C)c2)CC1` (configuration not stated) showed a melting point of 138 to 140 °C.

Molecule `O=C(O)CCCCCCCCC=Cc1ccco1` yielded a melting point of 45 to 46 °C.

`CCN(CC)C(=CC(=O)OC)n1c(=O)n2nc(C(=O)OC)c(N(CC)CC)c2c2ccccc21` gave a melting point of 178 °C.
